Test results from PubChem BioAssay AID2060513 (Molecular Pharmacology Branch, DTP, NCI, 2025).

Test system: 299254-011-R-J1-PDC complex spheroids viability
Assay: Anticancer human tumor 299254-011-R-J1-PDC patient-derived melanoma cell line growth inhibition [GQUAD]
Settings: for IC50: curve of first compound; for viability, T/C: stronger effect = lower value
Source text: DNA G-quadruplex Stabilizer Agents in Combinations in Complex Spheroids
A high-throughput screen of multi-cell type tumor spheroids was designed to identify active combinations of DNA G-quadruplex stabilizer agents and targeted small molecules. Complex spheroids include a stromal component modeled by human endothelial cells (HUVEC) and fibroblasts modeled by human mesenchymal stem cells (MSCs). The concentration ranges selected for each drug and investigational agent were based upon clinically achievable concentrations if the clinical Cmax of the agent was known.
Compounds. The drugs and investigational agents: pidnarulex (CX-5461; NSC782164), APTO-253 (NSC789042), BRACO-19 (NSC847499), peposertib (NSC802822), ceralasertib (NSC780249), elimusertib (NSC800525), camonsertib (NSC841442), AZD-1390 (NSC803789), olaparib (NSC753686), talazoparib (NSC767125), ART-558 (NSC835418), sotorasib (NSC818433), MRTX-1133 (NSC836407), SN-38 (NSC673596), topotecan (NSC609699), etoposide (NSC141540), doxorubicin (NSC123127), gemcitabine (NSC613327), 5-fluorouracil (NSC19893), paclitaxel (NSC125973), vemurafenib (NSC761431), panobinostat (NSC761190), R-306465 (JNJ-16241199; NSC773264), adavosertib (NSC754352), TP-3654 (NSC805149), carboplatin (NSC241240), KSQ-4279 (NSC840948), and staurosporine (NSC755774) were obtained from the National Cancer Institute (NCI) Developmental Therapeutics Program Chemical Repository (34). The FDA-approved anticancer drug set is available from the NCI Developmental Therapeutics Program. […] The stock solutions were prepared in dimethyl sulfoxide (DMSO, Sigma-Aldrich, St. Louis, MO, cat. D2650) at 800-fold the tested concentration and stored at -70 degrees C prior to their use. All drugs and investigational agents were tested over a range starting from a high concentration at or near the clinical Cmax and decreasing in half-log increments. If the clinical Cmax for an agent had not been determined, the highest concentration tested was 10 microM.
2.3 Cell Culture. All cells were maintained in an incubator at 37 degrees C and 5% CO2 with 95% humidity. The PDC lines were cultured according to standard operating procedures established by the NCI PDMR. All PDCs were thawed and cultured in Matrigel-coated flasks prepared with a working solution of 1X Ham's F-12 nutrient mix, without supplementation (Invitrogen, cat. 11765054), 100 U/mL penicillin-streptomycin (Invitrogen, cat. 15140122), and 2.5% Matrigel (Corning Inc., cat. 354248) for the first three passages. The 857933-349-R-J2-PDC line was cultured in 6C/Colon 1B media, which includes advanced DMEM/F-12 (Thermo Fisher Scientific, cat. 12634028), 10 mM HEPES (Thermo Fisher Scientific, cat. 15630080), 1X GlutaMAX supplement (Thermo Fisher Scientific, cat. 35050061), 0.1 mg/mL primocin (InvivoGen, cat. ant-pm-2), 10% defined fetal bovine serum, heat inactivated (HyClone Laboratories Inc., cat. SH30070.03HI), 50% L-WRN conditioned media (ATCC, cat. CRL-3276), 1.25 mM N-Acetyl-L-cysteine (Sigma-Aldrich, cat. A9165), 10 mM nicotinamide (Sigma-Aldrich, cat. N0636), 1X B-27 supplement (Thermo Fisher Scientific, cat. 17504044), 1X N-2 supplement (Thermo Fisher Scientific, cat. 17502048), 10 microM Y-27632 dihydrochloride (Tocris Bioscience, cat. 1254), and 50 ng/mL human EGF recombinant protein (Thermo Fisher Scientific, cat. PHG0311). The 485176-168-R4-J1-PDC line was cultured in Panc media, which includes all 6C/Colon 1B media components plus 100 ng/mL human FGF-10 (Thermo Fisher Scientific, cat. 100-26), 500 nM SB-431542 (Selleckchem, cat. S1067), and gastrin (Tocris, cat. 3006).
[…]

[1] = second compound 0.0316 µM, first compound 0.0316 µM
[2] = second compound 0.0316 µM, first compound 0.1 µM
[3] = second compound 0.0316 µM, first compound 0.316 µM
[4] = second compound 0.0316 µM, first compound 1 µM
[5] = second compound 0.0316 µM, first compound 3.16 µM
[6] = second compound 0.0316 µM, first compound 10 µM
[7] = second compound 0.1 µM, first compound 0.0316 µM
[8] = second compound 0.1 µM, first compound 0.1 µM
[9] = second compound 0.1 µM, first compound 0.316 µM
[10] = second compound 0.1 µM, first compound 1 µM
[11] = second compound 0.1 µM, first compound 3.16 µM
[12] = second compound 0.1 µM, first compound 10 µM
[13] = second compound 0.316 µM, first compound 0.0316 µM
[14] = second compound 0.316 µM, first compound 0.1 µM
[15] = second compound 0.316 µM, first compound 0.316 µM
[16] = second compound 0.316 µM, first compound 1 µM
[17] = second compound 0.316 µM, first compound 3.16 µM
[18] = second compound 0.316 µM, first compound 10 µM
[19] = second compound 1 µM, first compound 0.0316 µM
[20] = second compound 1 µM, first compound 0.1 µM
[21] = second compound 1 µM, first compound 0.316 µM
[22] = second compound 1 µM, first compound 1 µM
[23] = second compound 1 µM, first compound 3.16 µM
[24] = second compound 1 µM, first compound 10 µM
[25] = second compound 3.16 µM, first compound 0.0316 µM
[26] = second compound 3.16 µM, first compound 0.1 µM
[27] = second compound 3.16 µM, first compound 0.316 µM
[28] = second compound 3.16 µM, first compound 1 µM
[29] = second compound 3.16 µM, first compound 3.16 µM
[30] = second compound 3.16 µM, first compound 10 µM
[31] = second compound 10 µM, first compound 0.0316 µM
[32] = second compound 10 µM, first compound 0.1 µM
[33] = second compound 10 µM, first compound 0.316 µM
[34] = second compound 10 µM, first compound 1 µM
[35] = second compound 10 µM, first compound 3.16 µM
[36] = second compound 10 µM, first compound 10 µM
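Note: spheroids exposed to the agents for seven days before readout.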
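Throughout, for viability, T/C: percent viability relative to DMSO vehicle control wells = 100%.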

COc1ccc([C@@H](O)c2cc(-c3ncnc4cc(N5CCOCC5)ccc34)c(F)cc2Cl)nn1 + CN(C)c1ccc(Nc2c3ccc(NC(=O)CCN4CCCC4)cc3nc3cc(NC(=O)CCN4CCCC4)ccc23)cc1
IC50 (second compound 0.0316 µM): > 10 µM | IC50 (second compound 0.1 µM): > 10 µM | IC50 (second compound 0.316 µM): 9.57 µM | IC50 (second compound 1 µM): > 10 µM | IC50 (second compound 3.16 µM): > 10 µM | IC50 (second compound 10 µM): > 10 µM | viability, T/C [1]: 105% | viability, T/C [2]: 116% | viability, T/C [3]: 104% | viability, T/C [4]: 96.6% | viability, T/C [5]: 85.9% | viability, T/C [6]: 72.5% | viability, T/C [7]: 105% | viability, T/C [8]: 124% | viability, T/C [9]: 98.3% | viability, T/C [10]: 108% | viability, T/C [11]: 106% | viability, T/C [12]: 61.6% | viability, T/C [13]: 96.8% | viability, T/C [14]: 94.5% | viability, T/C [15]: 90% | viability, T/C [16]: 106% | viability, T/C [17]: 96.4% | viability, T/C [18]: 48.1% | viability, T/C [19]: 124% | viability, T/C [20]: 111% | viability, T/C [21]: 106% | viability, T/C [22]: 106% | viability, T/C [23]: 92.6% | viability, T/C [24]: 59.1% | viability, T/C [25]: 96.5% | viability, T/C [26]: 126% | viability, T/C [27]: 113% | viability, T/C [28]: 93.1% | viability, T/C [29]: 117% | viability, T/C [30]: 68.5% | viability, T/C [31]: 123% | viability, T/C [32]: 112% | viability, T/C [33]: 97.5% | viability, T/C [34]: 106% | viability, T/C [35]: 88.9% | viability, T/C [36]: 50.8%

C=CC(=O)N1CCN(c2nc(=O)n(-c3c(C)ccnc3C(C)C)c3nc(-c4c(O)cccc4F)c(F)cc23)C(C)C1 (stereo unspecified) + Cc1[nH]c2ccc(F)cc2c1-c1nc2c3cccnc3c3ncccc3c2[nH]1
IC50 (second compound 0.0316 µM): > 10 µM | IC50 (second compound 0.1 µM): > 10 µM | IC50 (second compound 0.316 µM): > 10 µM | IC50 (second compound 1 µM): > 10 µM | IC50 (second compound 3.16 µM): > 10 µM | IC50 (second compound 10 µM): > 10 µM | viability, T/C [1]: 85% | viability, T/C [2]: 63.2% | viability, T/C [3]: 62% | viability, T/C [4]: 56% | viability, T/C [5]: 67.1% | viability, T/C [6]: 75.7% | viability, T/C [7]: 72.9% | viability, T/C [8]: 85% | viability, T/C [9]: 60.5% | viability, T/C [10]: 56.7% | viability, T/C [11]: 66.2% | viability, T/C [12]: 78.3% | viability, T/C [13]: 67.3% | viability, T/C [14]: 80.1% | viability, T/C [15]: 63.1% | viability, T/C [16]: 64.6% | viability, T/C [17]: 74.2% | viability, T/C [18]: 69.9% | viability, T/C [19]: 67.8% | viability, T/C [20]: 69.4% | viability, T/C [21]: 66.2% | viability, T/C [22]: 79.8% | viability, T/C [23]: 63.7% | viability, T/C [24]: 86.8% | viability, T/C [25]: 73% | viability, T/C [26]: 81.1% | viability, T/C [27]: 73.8% | viability, T/C [28]: 78.4% | viability, T/C [29]: 74.7% | viability, T/C [30]: 69.9% | viability, T/C [31]: 74.4% | viability, T/C [32]: 71.5% | viability, T/C [33]: 72.5% | viability, T/C [34]: 67.1% | viability, T/C [35]: 77.6% | viability, T/C [36]: 59.4%

COc1cccc2c1C(=O)c1c(O)c3c(c(O)c1C2=O)CC(O)(C(=O)CO)CC3OC1CC(N)C(O)C(C)O1 (stereo unspecified) + CN(C)c1ccc(Nc2c3ccc(NC(=O)CCN4CCCC4)cc3nc3cc(NC(=O)CCN4CCCC4)ccc23)cc1
IC50 (second compound 0.0316 µM): 4.26 µM | IC50 (second compound 0.1 µM): 5.65 µM | IC50 (second compound 0.316 µM): 5.03 µM | IC50 (second compound 1 µM): 4.9 µM | IC50 (second compound 3.16 µM): 5.46 µM | IC50 (second compound 10 µM): 6.44 µM | viability, T/C [1]: 109% | viability, T/C [2]: 103% | viability, T/C [3]: 90.5% | viability, T/C [4]: 72.5% | viability, T/C [5]: 61.9% | viability, T/C [6]: 28.8% | viability, T/C [7]: 93.1% | viability, T/C [8]: 106% | viability, T/C [9]: 94.6% | viability, T/C [10]: 79.8% | viability, T/C [11]: 71% | viability, T/C [12]: 31.5% | viability, T/C [13]: 112% | viability, T/C [14]: 110% | viability, T/C [15]: 81% | viability, T/C [16]: 87.1% | viability, T/C [17]: 64.8% | viability, T/C [18]: 30.7% | viability, T/C [19]: 99.7% | viability, T/C [20]: 96.3% | viability, T/C [21]: 90.1% | viability, T/C [22]: 89.5% | viability, T/C [23]: 63.4% | viability, T/C [24]: 27.3% | viability, T/C [25]: 109% | viability, T/C [26]: 107% | viability, T/C [27]: 83.7% | viability, T/C [28]: 92.4% | viability, T/C [29]: 72.4% | viability, T/C [30]: 27.3% | viability, T/C [31]: 91.8% | viability, T/C [32]: 110% | viability, T/C [33]: 87.6% | viability, T/C [34]: 99.6% | viability, T/C [35]: 75.9% | viability, T/C [36]: 34%
